Assay results taken from patent US7964727B2, “Quinolonecarboxylic acid compounds having 5-HT4 receptor agonistic activity” (Pfizer Inc., priority 2003, dated 2011).
Structures can show the parent of a compound that is named as a salt.

Compound	melting point
CC(C)n1c(=O)c(C(=O)NCC2CCN(CC3(O)CCOCC3)CC2)cc2c(F)cccc21 (as salt: hydrochloride)	275.7 °C
Cc1cccc2c1cc(C(=O)NCC1CCN(CC3(O)CCOCC3)CC1)c(=O)n2C(C)C	222 °C
CC(C)n1c(=O)c(C(=O)NCC2CCN(CC3(O)CCOCC3)CC2)cc2c(Cl)cccc21	227 °C
Cc1cccc2c1cc(C(=O)NCC1CCN(CC3CCNCC3)CC1)c(=O)n2C(C)C (as salt: hydrochloride)	240.7 °C
